Assay results as given in patent US7348306B2, “Composition for promoting lacrimal secretion” (Fuso Pharmaceutical Industries, Ltd., priority 1999, dated 2008).
Where no end group is shown, it is not given here.

System: rat lacrimal secretion
Experiment: Rat lacrimal secretion in vivo, Schirmer test paper, after intravenous administration of PAR-associated peptides
Conditions: male Wistar rat
Description: An amount of lacrimal fluid may be measured according to the known method such as a method of Iga et al. using a rat (Iga, Y. et al., Jpn. J. Pharmacol., 78, 373-80, 1998). In particular, a rat is anesthetized with pentobarbital (50 mg/kg, intraabdominal administration), and a paper with 2 mm width for testing the human lacrimal secretion function, the Schirmer test paper (Showa Yakuhin Kako Co., Ltd.) is inserted into a lower eyelid of the rat. After a period of time fixed has passed, the test paper is removed, and a length of the wetted portion of the test paper is measured using a caliper square.
Male Wistar-line rat at 6 weeks of age was used in experiments. Each animal was housed for one week under the environment of room temperature of 23±2° C., a humidity of 50±5% and a 12 hours light/dark cycle (light: 07:00-19:00) and, thereafter, it was subjected to experiments. During the housing and experiment period, the animal was fed a solid chow and water ad lib.
Four animals were used in Examples 3-4, and the results thereof are shown in the mean±S.E.M. The test of significance was performed according to a Tukey's multiple comparison test.
An amount of rat lacrimal fluid was measured according to the method of Iga et al. (Iga, Y. et al., Jpn. J. Pharmacol., 78, 373-80, 1998). That is, the rat was anesthetized with pentobarbital (50 mg/kg, intraabdominal administration), and a paper with 2 mm width for testing human lacrimal secretion function, the Schirmer test paper (Showa Yakuhin Kako Co., Ltd.) was inserted into a lower eyelid of the rat. After the period of time fixed has passed, the test paper was removed, and a length of a wetted portion of the test paper was measured using a caliper square. An amount of lacrimal fluid was measured at 1, 2, 4, 6, 8 and 10 minutes after intravenous administration of a solvent or PAR-associated peptides.
An amount of lacrimal fluid was measured as described in Example 3.

[1] = 5 μmol/kg intravenously, peptide alone, Example 3 (FIG. 1)

| Substance | effect on lacrimal secretion (length of wetted portion of Schirmer test paper) [1] | time of peak of lacrimal secretion promotion after intravenous administration [1] [min] | dose-dependency of rat lacrimal secretion promoting action (1 to 5 μmol/kg intravenously, Example 4 (FIG. 2), vs solvent) | lacrimal secretion 8 and 10 minutes after combined treatment with amastatine, as compared with SLp-NH2 alone (SLp-NH2 5 μmol/kg i.v. with amastatine 2.5 μmol/kg i.v. 1 minute before, P<0.01 vs SLp-NH2 (Tukey test)) | persistence of lacrimal secretion promoting action in combined treatment with amastatine (SLp-NH2 5 μmol/kg i.v. with amastatine 2.5 μmol/kg i.v. 1 minute before, compared with SLp-NH2 alone) | effect on rat lacrimal secretion (5 μmol/kg intravenously, Example 4 (FIG. 2), vs solvent-administrated group) |
| --- | --- | --- | --- | --- | --- | --- |
| Ser-Leu-Ile-Gly-Arg-Leu-NH2 (SLIGRL-NH2) [SLp-NH2] | significant promotion of lacrimal secretion | 1 | promoted the rat lacrimal secretion in doses of ranging from 1 to 5 μmol/kg in a dose-dependent manner | significant promotion of lacrimal secretion | more persistent than that of SLp-NH2 alone | – |
| Leu-Arg-Gly-Ile-Leu-Ser-NH2 (LRGILS-NH2) [LRp-NH2, designed control peptide, C-terminal amidated, reference compound] | – | – | – | – | – | no effect |
